In ChEMBL document CHEMBL4390687, “Dispiropyrrolidinyl-piperidone embedded indeno[1,2-b]quinoxaline heterocyclic hybrids: Synthesis, cholinesterase inhibitory activity and their molecular docking simulation” (Bioorg Med Chem, 2019):

What was measured:
Acetylcholinesterase = Acetylcholinesterase (Electrophorus electricus, UniProt O42275); experiment: Inhibition of electric eel AChE using acetylthiocholine iodide as substrate preincubated for 15 mins followed by substrate addition and measured after 30 mins by Ellman's method
Cholinesterase = Cholinesterase (Equus caballus, UniProt P81908); experiment: Inhibition of equine serum BChE using butyrylthiocholine chloride as substrate preincubated for 15 mins followed by substrate addition and measured after 30 mins by Ellman's method
[1] = Selectivity index, ratio of IC50 for equine serum BChE to IC50 for electric eel AChE
[2] = Selectivity index, ratio of IC50 for electric eel AChE to IC50 for equine serum BChE

Chain of Cholinesterase (P81908 whole entry): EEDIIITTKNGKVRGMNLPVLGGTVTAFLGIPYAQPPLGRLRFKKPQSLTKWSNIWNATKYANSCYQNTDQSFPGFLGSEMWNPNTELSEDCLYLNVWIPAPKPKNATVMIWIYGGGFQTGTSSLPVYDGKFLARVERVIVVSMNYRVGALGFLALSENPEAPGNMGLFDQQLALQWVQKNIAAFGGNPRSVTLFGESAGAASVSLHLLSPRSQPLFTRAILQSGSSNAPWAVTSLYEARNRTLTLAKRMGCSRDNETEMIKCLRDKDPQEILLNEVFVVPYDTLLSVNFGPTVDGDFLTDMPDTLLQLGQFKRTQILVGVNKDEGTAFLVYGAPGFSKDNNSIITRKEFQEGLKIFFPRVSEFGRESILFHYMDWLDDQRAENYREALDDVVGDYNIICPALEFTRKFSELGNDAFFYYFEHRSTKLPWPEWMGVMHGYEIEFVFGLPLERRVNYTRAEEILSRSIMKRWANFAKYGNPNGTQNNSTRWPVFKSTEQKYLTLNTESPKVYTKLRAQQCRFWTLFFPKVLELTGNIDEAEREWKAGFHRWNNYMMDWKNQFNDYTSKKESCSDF
Chain of Acetylcholinesterase (O42275 whole entry): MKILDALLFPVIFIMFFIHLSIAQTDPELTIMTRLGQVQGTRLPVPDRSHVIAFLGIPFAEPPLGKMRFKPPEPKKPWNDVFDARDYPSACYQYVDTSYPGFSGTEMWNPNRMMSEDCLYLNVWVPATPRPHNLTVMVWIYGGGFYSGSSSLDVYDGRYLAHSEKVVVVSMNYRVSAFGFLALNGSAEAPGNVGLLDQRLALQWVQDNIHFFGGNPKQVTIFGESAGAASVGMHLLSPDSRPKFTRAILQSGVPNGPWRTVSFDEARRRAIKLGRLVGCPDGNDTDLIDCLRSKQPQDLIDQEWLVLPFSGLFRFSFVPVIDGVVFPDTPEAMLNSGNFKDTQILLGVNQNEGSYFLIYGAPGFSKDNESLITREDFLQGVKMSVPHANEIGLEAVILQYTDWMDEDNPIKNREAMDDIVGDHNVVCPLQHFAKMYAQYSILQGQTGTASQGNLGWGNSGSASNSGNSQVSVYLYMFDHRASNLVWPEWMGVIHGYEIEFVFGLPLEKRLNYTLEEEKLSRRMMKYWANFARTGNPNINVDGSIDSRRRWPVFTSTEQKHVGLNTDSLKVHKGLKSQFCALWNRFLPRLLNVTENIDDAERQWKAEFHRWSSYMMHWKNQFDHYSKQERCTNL

Compound | IC50 (Acetylcholinesterase) | IC50 (Cholinesterase) | Ratio IC50 [1] | Ratio IC50 [2]
O=C1/C(=C/c2ccccc2)CNCC12C(c1ccccc1)C(Cc1c[nH]c3ccccc13)NC21c2ccccc2C2N=c3ccccc3=NC21 (stereo not given) | 7.35 µM | 14.2 µM | 1.93 | 0.52
O=C1/C(=C/c2ccc(Cl)cc2Cl)CNCC12C(c1ccc(Cl)cc1Cl)C(Cc1c[nH]c3ccccc13)NC21c2ccccc2C2N=c3ccccc3=NC21 (stereo not given) | 10.2 µM | 17.6 µM | 1.73 | 0.58
Cc1cccc(/C=C2\CNCC3(C2=O)C(c2cccc(C)c2)C(Cc2c[nH]c4ccccc24)NC32c3ccccc3C3N=c4ccccc4=NC32)c1 (stereo not given) | 6.84 µM | 15.2 µM | 2.22 | 0.45
O=C1/C(=C/c2ccc(Cl)cc2)CNCC12C(c1ccc(Cl)cc1)C(Cc1c[nH]c3ccccc13)NC21c2ccccc2C2N=c3ccccc3=NC21 (stereo not given) | 12.5 µM | 18.8 µM | 1.5 | 0.67
O=C1/C(=C/c2cccc([N+](=O)[O-])c2)CNCC12C(c1cccc([N+](=O)[O-])c1)C(Cc1c[nH]c3ccccc13)NC21c2ccccc2C2N=c3ccccc3=NC21 (stereo not given) | 2.01 µM | 10.5 µM | 5.2 | 0.19
COc1ccc(/C=C2\CNCC3(C2=O)C(c2ccc(OC)cc2)C(Cc2c[nH]c4ccccc24)NC32c3ccccc3C3N=c4ccccc4=NC32)cc1 (stereo not given) | 7.2 µM | 23.2 µM | 3.22 | 0.31
Cc1ccccc1/C=C1\CNCC2(C1=O)C(c1ccccc1C)C(Cc1c[nH]c3ccccc13)NC21c2ccccc2C2N=c3ccccc3=NC21 (stereo not given) | 5.8 µM | 14.7 µM | 2.54 | 0.39
O=C1/C(=C/c2ccc(Br)cc2)CNCC12C(c1ccc(Br)cc1)C(Cc1c[nH]c3ccccc13)NC21c2ccccc2C2N=c3ccccc3=NC21 (stereo not given) | 15.2 µM | 20.6 µM | 1.35 | 0.74
O=C1/C(=C/c2ccccc2Cl)CNCC12C(c1ccccc1Cl)C(Cc1c[nH]c3ccccc13)NC21c2ccccc2C2N=c3ccccc3=NC21 (stereo not given) | 16.4 µM | 26.7 µM | 1.63 | 0.62
Cc1ccc(/C=C2\CNCC3(C2=O)C(c2ccc(C)cc2)C(Cc2c[nH]c4ccccc24)NC32c3ccccc3C3N=c4ccccc4=NC32)cc1 (stereo not given) | 3.22 µM | 12.4 µM | 3.85 | 0.26
